Data reported in patent US20230331679A1, “NAPHTHALENE MONOIMIDE COMPOUNDS AND METHODS THEREOF” (JAWAHARLAL NEHRU CENTRE FOR ADVANCED SCIENTIFIC RESEARCH, priority 2020, published 2023).

Molecular target: T1, Aβ42 fibrils (Homo sapiens, UniProt P05067)
T1 construct: commercially available β-amyloid peptide (1-42), human; purchased marck (so in the source) PP69-.025 mg
Assay: Dot blot analysis of Aβ42 fibrils with OC antibody
Format: biochemical
Method: The inhibition ability of TGR63 was further supported through dot blot ([…]) analysis which was used to evaluate the amount of Aβ42 fibrils. 10 µM of freshly prepared Aβ42 sample was incubated with TGR63 and alone independently for 48 h without shaking. The incubated samples were dotted on the PVDF membrane and allowed to dry. The PVDF membranes were blocked using 5% skimmed milk in PBS for 1 h at room temperature. The blots were washed (3 times) with 1% of Tween 20 containing PBS (PBST) for 10 min and incubated with OC (1:1000) primary antibody, specific to Aβ42 fibrils at 4° C. for 16 h. Then the unbound primary antibody was removed by PBST wash (3 times) and incubated with HRP conjugated anti-rabbit secondary antibody (Biorad, 1706515), which was diluted 10000 times. Further, nonspecific binding was removed with PBST wash and the blots were developed (chemiluminescent) and analyzed using BioRad ECL kit. […] Quantification of Aβ42 fibrils was done by firstly incubating 10 µM of Aβ42 peptide samples for 48 h at 37° C. The incubated samples were then spotted on a PVDF membrane and probed with OC (fibril specific, 1:1000) antibody to measure the amount of Aβ fibrils.

T1 sequence (P05067 672-713 limits assumed): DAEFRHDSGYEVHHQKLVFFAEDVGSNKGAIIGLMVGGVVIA

Compound: CN(C)c1ccc(C#Cc2ccc3c4c(cccc24)C(=O)N(CC[N+](C)(C)C)C3=O)cc1 [TGR63, 2-(6-((4-(dimethylamino)phenyl)ethynyl)-1,3-dioxo-1H-benzo[de]isoquinolin-2(3H)-yl)-N,N,N-trimethylethan-1-aminium]
- Aβ42 aggregates (quantification of dot blot) (L2, 10 µM TGR63, 10 µM Aβ42, 48 h at 37° C.): ~ 90%
- amount of Aβ42 fibrils decreased (blot image; Aβ42 alone 100%) (L3, 50 µM TGR63, 10 µM Aβ42, 48 h): ~ 50%
- Aβ42 aggregates (quantification of dot blot) (L3, 50 µM TGR63, 10 µM Aβ42, 48 h at 37° C.): ~ 40%
